Results from the NIST ThermoML archive (doi:10.1021/je050031f).
± gives the expanded uncertainty stated by the source.

Columns and labels:
[1] = 100.8 kPa, Liquid
[2] = refractive index (Na D-line) (dimensionless); details: 101.33 kPa, Liquid, Standard Abbe refractometry
[3] = xn = mol fraction of the nth substance listed; details: 100.8 kPa, Liquid
[4] = refractive index (Na D-line) (dimensionless); xn = mol fraction of the nth substance listed; details: 100.8 kPa, Liquid, Standard Abbe refractometry

Row | Structure (SMILES) | mass density ([1]; 288.15 K) | viscosity ([1]; 288.15 K) | mass density ([1]; 298.15 K) | viscosity ([1]; 298.15 K) | mass density ([1]; 308.15 K) | viscosity ([1]; 308.15 K) | refractive index ([2]; 288.15 K) | refractive index ([2]; 298.15 K) | refractive index ([2]; 308.15 K) | mass density ([3]; 288.15 K, x1 = 1) | mass density ([3]; 298.15 K, x1 = 1) | mass density ([3]; 308.15 K, x1 = 1) | refractive index ([4]; 288.15 K, x1 = 1) | refractive index ([4]; 298.15 K, x1 = 1) | refractive index ([4]; 308.15 K, x1 = 1) | also measured
1 | CCO [ethanol] | 793.6 ± 0.2 kg/m3 | 1.31 ± 0.016 mPa·s | 785.2 ± 0.3 kg/m3 | 1.085 ± 0.013 mPa·s | 776.5 ± 0.3 kg/m3 | 0.906 ± 0.011 mPa·s | 1.36351 ± 0.00031 | 1.35935 ± 0.00031 | 1.35504 ± 0.00031 |  |  |  |  |  |  | 
2 | CCO [ethanol] + CC1CCCCC1 |  |  |  |  |  |  |  |  |  | 793.6 ± 0.2 kg/m3 | 785.2 ± 0.3 kg/m3 | 776.5 ± 0.3 kg/m3 | 1.36351 ± 0.00031 | 1.35935 ± 0.00031 | 1.35504 ± 0.00031 | viscosity ([3]; 288.15 K, x1 = 1): 1.31 ± 0.016 mPa·s; viscosity ([3]; 298.15 K, x1 = 1): 1.085 ± 0.013 mPa·s; viscosity ([3]; 308.15 K, x1 = 1): 0.906 ± 0.011 mPa·s
3 | CC(C)OC(C)C [diisopropyl ether] + CC1CCCCC1 |  |  |  |  |  |  |  |  |  | 729 ± 0.3 kg/m3 | 718.6 ± 0.3 kg/m3 | 707.9 ± 0.3 kg/m3 | 1.37126 ± 0.00031 | 1.36537 ± 0.00031 | 1.35954 ± 0.00031 | viscosity ([3]; 288.15 K, Capillary tube (Ostwald / Ubbelohde) method, x1 = 1): 0.347 mPa·s; viscosity ([3]; 298.15 K, Capillary tube (Ostwald / Ubbelohde) method, x1 = 1): 0.313 mPa·s; viscosity ([3]; 308.15 K, Capillary tube (Ostwald / Ubbelohde) method, x1 = 1): 0.283 mPa·s
4 | CC(C)OC(C)C [diisopropyl ether] | 729 ± 0.3 kg/m3 | 0.347 ± 0.005 mPa·s | 718.6 ± 0.3 kg/m3 | 0.313 ± 0.005 mPa·s | 707.9 ± 0.3 kg/m3 | 0.283 ± 0.005 mPa·s | 1.37126 ± 0.00031 | 1.36537 ± 0.00031 | 1.35954 ± 0.00031 |  |  |  |  |  |  | 
5 | CCO [ethanol] + CC(C)OC(C)C |  |  |  |  |  |  |  |  |  |  |  |  |  |  |  | mass density ([3]; 288.15 K, x2 = 0): 793.6 ± 0.2 kg/m3; viscosity ([3]; 288.15 K, x2 = 0): 1.31 ± 0.016 mPa·s; mass density ([3]; 298.15 K, x2 = 0): 785.2 ± 0.3 kg/m3; viscosity ([3]; 298.15 K, x2 = 0): 1.085 ± 0.013 mPa·s; mass density ([3]; 308.15 K, x2 = 0): 776.5 ± 0.3 kg/m3; viscosity ([3]; 308.15 K, x2 = 0): 0.906 ± 0.011 mPa·s; refractive index ([4]; 288.15 K, x2 = 0): 1.36351 ± 0.00031; refractive index ([4]; 298.15 K, x2 = 0): 1.35935 ± 0.00031; refractive index ([4]; 308.15 K, x2 = 0): 1.35504 ± 0.00031
6 | CC1CCCCC1 [methylcyclohexane] | 773.4 ± 0.3 kg/m3 | 0.784 ± 0.01 mPa·s | 765 ± 0.3 kg/m3 | 0.685 ± 0.009 mPa·s | 756.3 ± 0.3 kg/m3 | 0.6 ± 0.008 mPa·s | 1.42578 ± 0.00033 | 1.42053 ± 0.00033 | 1.41537 ± 0.00033 |  |  |  |  |  |  | 
